Results on two compounds are retold here after ChEMBL document CHEMBL1125524, “Adenosine A1 antagonists. 2. Structure-activity relationships on diuretic activities and protective effects against acute renal failure” (J Med Chem, 1992).

Assay [1] has as its system Rattus norvegicus. The experiment in a line: Urea nitrogen concentration measured after intraperitoneal administration of 1 mg/kg of compound to rats(vehicle 107.7+/-15.2). Format: functional.
The subject of assay [2] is Rattus norvegicus. The experiment in a line: Ratio of urinary excretion value (Na+ concentration) in treated rats to that in control rats, at a peroral dose of 6.25 mg/Kg. Type of assay: functional, Urine.
In assay [3] the test system is Rattus norvegicus. The experiment in a line: Ratio of urinary excretion value (Na+ concentration) in treated rats to that in control rats, at a peroral dose of 25 mg/Kg. Type of assay: functional, Urine.
Assay [4] has as its system Rattus norvegicus. The experiment in a line: Percent inhibition of Urea nitrogen by the compound given as ratio of UN value in treated to vehicle treated ones after intraperitoneal administration of 10 mg/kg of compound to rats(vehicle 138.4+/-9.8). Format: functional. The settings on record: ip.
Assay [5] has as its system Rattus norvegicus. The experiment in a line: Ratio of urinary excretion value (urinary volume) in treated rats to that in control rats, at a peroral dose of 25 mg/Kg. Type of assay: functional, Urine.
The target in assay [6] is Adenosine A2 receptor (Rattus norvegicus, UniProt P29276+P30543).
Assay [7] has as its system Rattus norvegicus. The experiment in a line: Percent inhibition of serum creatinine by the compound given as ratio of Cr value in treated to vehicle treated ones after intraperitoneal administration of 1 mg/kg of compound to rats(vehicle 2.89+/-0.42). Type of assay: functional. The settings on record: ip.
For assay [8], the system named is Rattus norvegicus. The experiment in a line: Effect on urinary excretion potassium and sodium after oral administration of 25 mg/kg to rats(potassium and sodium excretion in control rat is 0.134+/-0.017). Type of assay: functional, Urine.
For assay [9], the system named is Rattus norvegicus. The experiment in a line: Percent inhibition of serum creatinine by the compound given as ratio of Cr value in treated to vehicle treated ones after intraperitoneal administration of 10 mg/kg of compound to rats(vehicle 2.89+/-0.18). Type of assay: functional. The settings on record: ip.
The test system of assay [10] is Rattus norvegicus. The experiment in a line: Percent inhibition of Urea nitrogen by the compound given as ratio of UN value in treated to vehicle treated ones after intraperitoneal administration of 1 mg/kg of compound to rats(vehicle 107.7+/-15.2). Type of assay: functional. Conditions: ip.
Assay [11] concerns the target T1, Adenosine receptor A1 (Cavia porcellus, UniProt P47745).
T1 sequence (P47745 whole entry): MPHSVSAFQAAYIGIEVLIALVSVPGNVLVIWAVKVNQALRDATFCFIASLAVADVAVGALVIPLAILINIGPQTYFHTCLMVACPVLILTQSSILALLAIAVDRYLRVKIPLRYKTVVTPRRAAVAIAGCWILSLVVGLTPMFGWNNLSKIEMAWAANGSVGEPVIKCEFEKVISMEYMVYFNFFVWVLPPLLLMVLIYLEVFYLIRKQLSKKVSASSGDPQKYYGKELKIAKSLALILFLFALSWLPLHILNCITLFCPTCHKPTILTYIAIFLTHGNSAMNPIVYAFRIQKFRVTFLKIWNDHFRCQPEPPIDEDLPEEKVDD
Description: Binding affinity against adenosine A1 receptor in guinea pig forebrain membranes using N6-[3H]cyclohexyladenosine as radioligand

Assay [12] concerns Rattus norvegicus. The experiment in a line: Urea nitrogen concentration measured after intraperitoneal administration of 10 mg/kg of compound to rats(vehicle 138.4+/-9.8). Type of assay: functional.
Assay [13] concerns Rattus norvegicus. The experiment in a line: Ratio of urinary excretion value (urinary volume) in treated rats to that in control rats, at a peroral dose of 6.25 mg/Kg. Type of assay: functional, Urine.
Assay [14] has as its system Rattus norvegicus. The experiment in a line: Serum creatinine concentration measured after intraperitoneal administration of 1 mg/kg of compound to rats(vehicle 2.89+/-0.42). Format: functional.
Assay [15] deals with Rattus norvegicus. The experiment in a line: Oral diuretic activity was measured after oral administration of 25 mg/kg to rats(control volume is 0.87+/-0.04). Format: functional, Urine.
Assay [16] concerns Rattus norvegicus. The experiment in a line: Serum creatinine concentration measured after intraperitoneal administration of 10 mg/kg of compound to rats(vehicle 2.89+/-0.18). Type of assay: functional.
Assay [17] relates to Rattus norvegicus. The experiment in a line: Ratio of sodium ion/potassium ion concentration in treated rats to that in control rats, at a peroral dose of 25 mg/Kg. Type of assay: functional.
Assay [18] concerns Rattus norvegicus. The experiment in a line: Serum creatinine concentration measured after intraperitoneal administration of 10 mg/kg of compound to rats(vehicle 4.38+/-0.17). Type of assay: functional.
Assay [19] deals with Rattus norvegicus. The experiment in a line: Oral diuretic activity was measured after oral administration of 25 mg/kg to rats(control volume is 0.76+/-0.01). Type of assay: functional, Urine.
Assay [20] concerns Rattus norvegicus. The experiment in a line: Percent inhibition of Urea nitrogen by the compound given as ratio of UN value in treated to vehicle treated ones after intraperitoneal administration of 10 mg/kg of compound to rats(vehicle 164.3+/-4.9). Type of assay: functional. The settings on record: ip.
In assay [21] the test system is Rattus norvegicus. The experiment in a line: Effect on urinary excretion potassium and sodium after oral administration of 25 mg/kg to rats(potassium and sodium excretion in control rat is 0.160+/-0.006). Format: functional, Urine.
For assay [22], the system named is Rattus norvegicus. The experiment in a line: Percent inhibition of serum creatinine by the compound given as ratio of Cr value in treated to vehicle treated ones after intraperitoneal administration of 10 mg/kg of compound to rats(vehicle 4.38+/-0.17). Format: functional. Conditions: ip.
The subject of assay [23] is Rattus norvegicus. The experiment in a line: Urea nitrogen concentration measured after intraperitoneal administration of 10 mg/kg of compound to rats(vehicle 164.3+/-4.9). Type of assay: functional.

What is called inhibition in vivo is the drop in the measured response relative to a control, in per cent. As usually defined, the Ki is a measure of affinity in units of concentration, obtained from inhibition or displacement. Low values mean higher affinity, high ones lower affinity. For `FC(F)(F)c1nnc2c(NC3CCCC3)nc3ccccc3n12`, the results for the UN in [1] and in [12] were 92 mg/dL and 58.9 mg/dL, respectively. Besides, the T/C in assay [2] was found to be 1.1; in assay [3], 1.55; in [5], 2.13; in assay [13], 0.92. Further, the inhibition in vivo at 10 mg/kg came out at 62% in assay [4] and 48% in assay [9]. The Ki in assay [6] worked out at 1.3 µM; in [11], 0.076 µM. For the same compound, the inhibition in vivo at 1 mg/kg was found to be 10% in [7] and 15% in [10]. In assay [8], this compound displayed a Na of 0.314 m equiv 6hr-1 100g-1. Besides, the Cr in assay [14] was found to be 2.6 mg/dL; in assay [16], 1.52 mg/dL. Further, in assay [15], the Urine volume was 1.86 ml 6hr-1 100g-1. Further, the “Na+/K+” value in [17] worked out at 1.71.
In [18], `CCCn1c(=O)c2c(nc(C(C3CC3)C3CC3)n2CCC)n(CCC)c1=O` had a Cr of 4.09 mg/dL. For the same compound, the Urine volume in assay [19] came out at 1.12 ml 6hr-1 100g-1. Further, the figures for the inhibition in vivo at 10 mg/kg in assay [20] and in [22] were 3% and 7%, respectively. Moreover, the T/C in assay [3] was 1.18; in assay [5], 1.47. In assay [6], this compound returned a Ki of 6.3 µM. In assay [21], the Na worked out at 0.188 m equiv 6hr-1 100g-1. For the same compound, the UN in assay [23] came to 159.2 mg/dL. Besides, the “Na+/K+” value in assay [17] is listed as 0.92.
